Among the data in ChEMBL document CHEMBL1201862, “PubChem BioAssay data set” (2004) are IC50, AC50 and CC50 values, retold here.

Assay [1] is described as follows: cells.
Assay [2] can be described thus: cAMP pathway inhibition in counterscreen cell line – TR-FRET cAMP detection, counter-screen for MC4R biased antagonist project, dose response (AID 602305).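 Further: U2OS cells stimulated with forskolin near its EC80 as the cAMP inducer; potency is for inhibition of forskolin-stimulated cAMP signaling.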 The format is functional, cell-based.
For assay [3], the target named is Cytochrome P450 2D6 (Homo sapiens, UniProt P10635).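 Further: CYP2D6 member of a cytochrome P450 panel assay.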
The nature of assay [4]: viability of uninfected HEp-2 cells – cell-based, HTS, cytotoxicity control for RSV inhibitor project, dose response (AID 2410). The class given is functional. The settings on record: human respiratory syncytial virus.
The target of assay [5] is Melanocortin receptor 4 (Homo sapiens, UniProt P32245). Nature of the assay: inhibitors of MC4R cAMP signaling – cell-based, TR-FRET, biased antagonists, dose response (AID 602298).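 Further: antagonist potency against agonist-stimulated cAMP production.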 The format is functional.
Assay [6] deals with H9c2. Nature of the assay: cells. The class given is functional, cell-based. The settings on record: Rattus norvegicus, H9c2, Myocardium.
Assay [7] concerns the target T1, Rac GTPase-activating protein 1 (Homo sapiens, UniProt Q9H0H5).
T1 sequence (Q9H0H5 whole entry): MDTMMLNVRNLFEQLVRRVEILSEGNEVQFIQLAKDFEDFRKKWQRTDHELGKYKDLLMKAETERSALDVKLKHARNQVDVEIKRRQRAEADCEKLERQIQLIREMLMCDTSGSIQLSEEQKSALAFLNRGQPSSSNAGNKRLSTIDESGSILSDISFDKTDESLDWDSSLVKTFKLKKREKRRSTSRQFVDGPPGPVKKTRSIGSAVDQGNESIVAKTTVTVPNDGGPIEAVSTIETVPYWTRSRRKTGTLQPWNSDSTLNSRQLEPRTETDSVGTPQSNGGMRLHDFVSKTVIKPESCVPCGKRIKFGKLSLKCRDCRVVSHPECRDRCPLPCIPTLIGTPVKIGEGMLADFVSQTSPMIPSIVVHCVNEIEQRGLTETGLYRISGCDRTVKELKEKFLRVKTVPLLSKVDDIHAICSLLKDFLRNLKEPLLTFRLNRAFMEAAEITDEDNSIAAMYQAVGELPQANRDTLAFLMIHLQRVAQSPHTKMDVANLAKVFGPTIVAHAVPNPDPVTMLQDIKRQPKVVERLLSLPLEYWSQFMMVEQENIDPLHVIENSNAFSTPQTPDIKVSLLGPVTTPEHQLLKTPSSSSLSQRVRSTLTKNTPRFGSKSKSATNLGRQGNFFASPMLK
Nature of the assay: blockers of MgcRacGAP-driven Rac1 GTP hydrolysis – biochemical, ADP Hunter fluorescence, primary and confirmatory, confirmation (AID 624330). The format is functional.

Assay [8] addresses T2, Caspase-3 (Homo sapiens, UniProt P42574).
T2 sequence (P42574 whole entry): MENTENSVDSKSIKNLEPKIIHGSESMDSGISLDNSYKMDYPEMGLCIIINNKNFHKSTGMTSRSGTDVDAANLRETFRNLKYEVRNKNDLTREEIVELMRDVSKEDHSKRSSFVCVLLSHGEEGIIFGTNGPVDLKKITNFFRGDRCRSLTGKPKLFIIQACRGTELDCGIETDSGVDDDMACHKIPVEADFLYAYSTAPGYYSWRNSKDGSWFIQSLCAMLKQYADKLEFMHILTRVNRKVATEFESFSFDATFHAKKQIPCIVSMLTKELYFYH
The assay can be described thus: SAR Analysis of small molecule inhibitors of Sentrin-specific proteases (SENPs) using a Caspase-3 Selectivity assay. [Related pubchem assays (depositor defined):AID2540, AID2599, AID434973, AID489001]. The format is functional.

For assay [9], the target named is T3, Sentrin-specific protease 7 (Homo sapiens, UniProt Q9BQF6).
T3 sequence (Q9BQF6 whole entry): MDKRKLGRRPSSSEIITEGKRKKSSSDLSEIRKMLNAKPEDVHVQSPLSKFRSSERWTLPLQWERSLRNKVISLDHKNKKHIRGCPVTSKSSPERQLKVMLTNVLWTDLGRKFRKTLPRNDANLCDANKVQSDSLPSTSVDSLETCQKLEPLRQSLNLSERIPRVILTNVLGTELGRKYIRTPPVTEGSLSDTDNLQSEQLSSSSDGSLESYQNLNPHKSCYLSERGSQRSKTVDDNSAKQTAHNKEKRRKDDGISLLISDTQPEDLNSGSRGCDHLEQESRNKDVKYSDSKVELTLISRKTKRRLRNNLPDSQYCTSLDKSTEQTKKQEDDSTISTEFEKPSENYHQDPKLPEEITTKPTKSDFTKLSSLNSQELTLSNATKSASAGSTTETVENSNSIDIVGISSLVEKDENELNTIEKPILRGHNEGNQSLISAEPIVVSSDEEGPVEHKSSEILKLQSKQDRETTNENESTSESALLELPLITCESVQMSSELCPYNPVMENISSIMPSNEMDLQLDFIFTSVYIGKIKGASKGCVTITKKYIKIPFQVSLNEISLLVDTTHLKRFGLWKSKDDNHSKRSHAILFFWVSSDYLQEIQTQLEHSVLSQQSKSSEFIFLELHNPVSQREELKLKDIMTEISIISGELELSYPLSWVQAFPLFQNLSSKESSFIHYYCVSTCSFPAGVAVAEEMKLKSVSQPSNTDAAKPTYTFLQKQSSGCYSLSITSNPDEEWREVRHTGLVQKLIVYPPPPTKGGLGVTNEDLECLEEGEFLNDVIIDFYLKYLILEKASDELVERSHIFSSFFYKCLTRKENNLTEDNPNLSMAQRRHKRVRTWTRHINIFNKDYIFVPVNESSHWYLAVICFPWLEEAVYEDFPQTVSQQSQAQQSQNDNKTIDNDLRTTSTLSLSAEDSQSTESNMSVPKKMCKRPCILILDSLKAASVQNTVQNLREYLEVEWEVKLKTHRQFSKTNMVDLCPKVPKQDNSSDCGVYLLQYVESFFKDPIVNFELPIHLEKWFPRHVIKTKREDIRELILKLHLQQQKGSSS
The assay can be described thus: inhibition of human SENP7 cleavage activity – biochemical, luminescence, set 2, SAR follow-up (AID 588600). The format is functional.

Assay [10] deals with T4, Sentrin-specific protease 8 (Homo sapiens, UniProt Q96LD8).
T4 sequence (Q96LD8 whole entry): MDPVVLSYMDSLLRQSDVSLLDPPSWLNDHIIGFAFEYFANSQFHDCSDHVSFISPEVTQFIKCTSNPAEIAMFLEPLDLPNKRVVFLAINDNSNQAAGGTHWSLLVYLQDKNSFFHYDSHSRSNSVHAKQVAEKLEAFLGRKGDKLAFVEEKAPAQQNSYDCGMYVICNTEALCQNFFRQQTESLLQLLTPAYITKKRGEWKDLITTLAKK
Nature of the assay: inhibition of human SENP8 cleavage activity – biochemical, luminescence, SAR follow-up (AID 504501). The format is functional.

In assay [11] the target is T4, Sentrin-specific protease 8. The assay can be described thus: inhibition of sentrin protease 8 – biochemical, luminescence, set 2, SAR follow-up (AID 588601). The class given is functional.
Assay [12] addresses T5, Sentrin-specific protease 6 (Homo sapiens, UniProt Q9GZR1).
T5 sequence (Q9GZR1 whole entry): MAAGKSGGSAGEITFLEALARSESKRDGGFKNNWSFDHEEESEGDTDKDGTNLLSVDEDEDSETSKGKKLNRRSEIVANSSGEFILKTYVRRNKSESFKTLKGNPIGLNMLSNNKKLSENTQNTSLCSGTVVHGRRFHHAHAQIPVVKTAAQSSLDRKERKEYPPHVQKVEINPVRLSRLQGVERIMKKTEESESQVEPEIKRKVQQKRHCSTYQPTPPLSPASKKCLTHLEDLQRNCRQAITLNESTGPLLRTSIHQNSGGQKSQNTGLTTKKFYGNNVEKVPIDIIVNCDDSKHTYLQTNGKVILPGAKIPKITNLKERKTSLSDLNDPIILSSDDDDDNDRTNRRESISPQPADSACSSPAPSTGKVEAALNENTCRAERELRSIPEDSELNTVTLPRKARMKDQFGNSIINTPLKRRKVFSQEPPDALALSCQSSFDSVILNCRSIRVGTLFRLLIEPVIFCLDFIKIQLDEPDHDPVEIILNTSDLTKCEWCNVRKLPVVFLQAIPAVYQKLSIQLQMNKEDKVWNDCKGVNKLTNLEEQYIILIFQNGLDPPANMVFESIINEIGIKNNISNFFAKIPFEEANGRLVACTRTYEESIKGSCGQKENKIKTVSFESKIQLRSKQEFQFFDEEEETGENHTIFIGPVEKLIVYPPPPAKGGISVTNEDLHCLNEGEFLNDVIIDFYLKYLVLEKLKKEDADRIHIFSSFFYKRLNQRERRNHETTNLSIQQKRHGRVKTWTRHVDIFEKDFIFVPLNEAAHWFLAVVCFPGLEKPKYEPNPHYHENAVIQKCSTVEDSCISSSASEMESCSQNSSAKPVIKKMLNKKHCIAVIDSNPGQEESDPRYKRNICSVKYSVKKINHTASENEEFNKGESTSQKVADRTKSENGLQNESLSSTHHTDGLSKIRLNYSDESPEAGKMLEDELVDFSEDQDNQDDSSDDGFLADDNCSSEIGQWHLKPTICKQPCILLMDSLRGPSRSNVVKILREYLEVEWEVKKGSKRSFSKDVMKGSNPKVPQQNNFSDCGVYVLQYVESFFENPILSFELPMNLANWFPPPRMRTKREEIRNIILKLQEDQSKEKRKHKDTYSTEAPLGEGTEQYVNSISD
Nature of the assay: SAR Analysis of small molecule inhibitors of Sentrin-specific protease 6 (SENP6) using a Luminescent assay. [Related pubchem assays (depositor defined):AID2582, AID2599]. The class given is functional.

Assay [13] concerns the target T3, Sentrin-specific protease 7. The assay can be described thus: inhibition of human SENP7 cleavage activity – biochemical, luminescence, SAR follow-up (AID 504497). The format is functional.
For assay [14], the target named is T5, Sentrin-specific protease 6. The assay can be described thus: inhibition of human SENP6 catalytic domain – biochemical, luminescence, set 2, SAR follow-up (AID 588598). The class given is functional.
For assay [15], the target named is Melanin-concentrating hormone receptor 1 (Homo sapiens, UniProt Q99705). The assay can be described thus: Late-stage fluorescence-based counterscreen for antagonists of the G-protein coupled receptor 7 (GPR7): cell-based dose response assay to identify antagonists of the melanin-concentrating hormone receptor 1 (MCHR1) Set 6. The class given is functional.
The target in assay [16] is T6, Neuropeptides B/W receptor type 1 (Homo sapiens, UniProt P48145).
T6 sequence (P48145 whole entry): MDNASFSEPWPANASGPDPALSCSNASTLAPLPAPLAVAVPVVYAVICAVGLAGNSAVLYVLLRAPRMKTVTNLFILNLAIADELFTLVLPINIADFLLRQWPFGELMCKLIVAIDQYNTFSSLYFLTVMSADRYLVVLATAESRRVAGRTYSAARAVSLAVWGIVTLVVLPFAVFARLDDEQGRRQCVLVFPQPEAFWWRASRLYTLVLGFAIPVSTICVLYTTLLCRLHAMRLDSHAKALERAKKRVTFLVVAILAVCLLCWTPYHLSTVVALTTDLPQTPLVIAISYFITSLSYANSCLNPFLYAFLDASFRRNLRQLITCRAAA
The assay can be described thus: human NPBW1 receptor blockade, IC50 – cell-based, fluorescence, dose response, set 6, late-stage follow-up (AID 588583). The class given is functional.

The structures appear in SMILES notation. Where “and” joins values, the source holds several entries; their conditions need not be identical. Equal values may be shown once. Calls of active or inactive are those of the source.

Melanin-concentrating hormone receptor 1, sequence (Q99705 whole entry): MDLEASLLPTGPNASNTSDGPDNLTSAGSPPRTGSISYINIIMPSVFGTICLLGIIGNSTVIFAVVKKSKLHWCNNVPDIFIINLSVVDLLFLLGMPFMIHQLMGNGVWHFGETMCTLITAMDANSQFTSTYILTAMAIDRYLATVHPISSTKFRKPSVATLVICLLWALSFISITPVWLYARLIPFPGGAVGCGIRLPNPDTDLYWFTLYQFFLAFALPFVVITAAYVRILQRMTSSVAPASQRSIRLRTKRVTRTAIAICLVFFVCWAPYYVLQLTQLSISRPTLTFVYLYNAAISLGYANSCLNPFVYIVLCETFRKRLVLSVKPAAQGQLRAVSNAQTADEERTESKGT
Melanocortin receptor 4, sequence (P32245 whole entry): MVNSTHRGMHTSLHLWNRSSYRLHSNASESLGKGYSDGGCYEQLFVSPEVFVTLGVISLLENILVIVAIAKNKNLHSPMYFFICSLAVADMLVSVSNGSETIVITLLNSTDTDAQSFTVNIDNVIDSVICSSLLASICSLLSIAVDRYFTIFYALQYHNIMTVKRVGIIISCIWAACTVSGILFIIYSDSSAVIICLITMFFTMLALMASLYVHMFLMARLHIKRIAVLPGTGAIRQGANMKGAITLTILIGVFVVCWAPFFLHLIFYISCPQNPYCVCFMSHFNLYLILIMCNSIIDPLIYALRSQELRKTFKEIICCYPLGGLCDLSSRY
Cytochrome P450 2D6, sequence (P10635 whole entry): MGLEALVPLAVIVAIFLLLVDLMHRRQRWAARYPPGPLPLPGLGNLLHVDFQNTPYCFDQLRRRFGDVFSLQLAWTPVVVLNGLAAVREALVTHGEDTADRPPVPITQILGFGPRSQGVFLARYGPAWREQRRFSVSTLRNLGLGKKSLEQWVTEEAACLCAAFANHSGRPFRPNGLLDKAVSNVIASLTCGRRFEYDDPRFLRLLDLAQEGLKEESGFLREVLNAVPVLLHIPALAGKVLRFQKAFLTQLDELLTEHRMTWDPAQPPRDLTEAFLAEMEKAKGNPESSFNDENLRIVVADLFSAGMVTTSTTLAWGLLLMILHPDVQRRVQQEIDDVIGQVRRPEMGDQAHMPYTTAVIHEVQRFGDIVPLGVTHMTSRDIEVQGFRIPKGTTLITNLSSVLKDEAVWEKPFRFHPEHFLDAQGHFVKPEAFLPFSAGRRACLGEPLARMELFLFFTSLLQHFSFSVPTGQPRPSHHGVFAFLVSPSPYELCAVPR

With `COc1ccc(OC)c(C2C3=C(O)CCCC3=NC(C)=C2C(=O)Nc2nc3ccccc3s2)c1` (stereo not drawn), the IC50 is 9.83 µM (active) in assay [1], > 64.6 µM (inactive) in assay [2] and 12.6 µM (inactive) in assay [5]. For the same molecule, the half-maximal activity concentration (AC50) in [3] was 22.4 µM (inconclusive). In assay [4], the CC50 was 23.1 µM (active).
Consider `CCN(C[C@H]1N[C@@](CC)(C(=O)OC)[C@H]2C(=O)N(Cc3ccccc3)C(=O)[C@@H]12)C(=O)c1ccc(C(C)(C)C)cc1`, for which the IC50 was > 79 µM (inactive) in assay [6], > 64.6 µM (inactive) in assay [2] and > 64.6 µM (inactive) in assay [5].
With `CCOC(=O)c1sc(S)nc1C`, the results for the IC50 in [2], in assay [7] and in [5] were 44.7 µM (inactive), 50 µM (active) and 18.2 µM (inactive), respectively.
As to `CCCCc1ccc2nc(NC(=O)c3sccc3Cl)sc2c1`, the IC50 was 1.1 µM (active) in assay [8]; 1.16 µM (active) in [9]; 0.99 µM (active) in assay [10]; 1.06 µM (active) in assay [11]; 0.97 µM (active) in assay [12]; 0.96 µM (active) in assay [13]. In addition, in assay [14], the IC50 was 1.15 µM (active).
As for `O=C(Nc1ccc(-c2noc(/C=C/c3ccccc3)n2)cc1)c1ccc(Br)o1`, the IC50 in assay [8], in assay [10], in assay [12] and in assay [13] was > 99 µM (inactive) each time.
In the case of `CC(C)c1ccc(C(C#N)c2c(Cl)cnn(Cc3cccc4ccccc34)c2=O)cc1` (stereo not drawn), the IC50 in assay [15] was 253 nM (active) and 1.62 µM (active); in [16], 253 nM (active) and 1.62 µM (active).
With `CCn1ccc2ccc(Oc3c(Cl)cnn(Cc4cccc5ccccc45)c3=O)cc21`, the IC50 in assay [15] and in [16] was > 20 µM (inactive) in each case.
Take `N#Cc1cccc(C(C#N)c2c(Cl)cnn(Cc3cccc4ccccc34)c2=O)c1` (stereo not drawn): the IC50 in [15] and in assay [16] was 0.553 µM (active) in each case.
